Data taken from ChEMBL document CHEMBL1201862, “PubChem BioAssay data set” (2004).
Activity calls are given as the source filed them.

Columns and labels:
[1] = target: T1, Carboxy-terminal domain RNA polymerase II polypeptide A small phosphatase 1 (Homo sapiens, UniProt Q9GZU7); assay: CTDSP1 inhibitors, concentration-response, biochemical, absorbance readout, ultra-high-throughput screen actives (AID 540297); format: functional
T1 sequence (Q9GZU7 whole entry): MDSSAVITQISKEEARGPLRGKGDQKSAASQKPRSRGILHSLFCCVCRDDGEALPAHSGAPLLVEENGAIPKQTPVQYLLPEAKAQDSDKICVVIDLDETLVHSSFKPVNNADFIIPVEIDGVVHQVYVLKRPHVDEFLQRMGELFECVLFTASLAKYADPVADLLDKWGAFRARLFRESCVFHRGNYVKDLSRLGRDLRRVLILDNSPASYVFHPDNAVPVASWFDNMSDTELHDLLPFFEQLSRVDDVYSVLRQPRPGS

[2] = target: T2, Sentrin-specific protease 8 (Homo sapiens, UniProt Q96LD8); format: functional;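 note: luminescence read-out of SENP8 inhibition, dose-response confirmation following an ultra-high-throughput screen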
T2 sequence (Q96LD8 whole entry): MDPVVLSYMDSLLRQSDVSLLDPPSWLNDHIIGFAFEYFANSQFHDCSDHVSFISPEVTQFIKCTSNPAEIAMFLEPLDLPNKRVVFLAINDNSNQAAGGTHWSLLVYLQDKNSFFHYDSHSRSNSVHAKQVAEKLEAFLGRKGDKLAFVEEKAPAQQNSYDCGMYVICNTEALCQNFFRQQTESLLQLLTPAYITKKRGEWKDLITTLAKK

[3] = target: T3, Caspase-3 (Homo sapiens, UniProt P42574); format: functional;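 note: Dose-response selectivity test against caspase-3 for candidate inhibitors of sentrin-specific proteases (SENPs)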
T3 sequence (P42574 whole entry): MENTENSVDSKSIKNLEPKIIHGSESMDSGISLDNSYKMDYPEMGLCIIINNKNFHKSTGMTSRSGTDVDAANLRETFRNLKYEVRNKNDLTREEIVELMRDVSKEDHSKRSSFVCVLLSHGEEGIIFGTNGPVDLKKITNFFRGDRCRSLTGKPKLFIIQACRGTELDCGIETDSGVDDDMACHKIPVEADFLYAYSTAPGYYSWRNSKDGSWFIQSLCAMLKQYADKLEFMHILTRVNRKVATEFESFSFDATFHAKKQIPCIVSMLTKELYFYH

[4] = target: T4, Sentrin-specific protease 7 (Homo sapiens, UniProt Q9BQF6); format: functional;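 note: Luminescence-based dose-response confirmation of ultra-high-throughput screening hits, measuring inhibition of SENP7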
T4 sequence (Q9BQF6 whole entry): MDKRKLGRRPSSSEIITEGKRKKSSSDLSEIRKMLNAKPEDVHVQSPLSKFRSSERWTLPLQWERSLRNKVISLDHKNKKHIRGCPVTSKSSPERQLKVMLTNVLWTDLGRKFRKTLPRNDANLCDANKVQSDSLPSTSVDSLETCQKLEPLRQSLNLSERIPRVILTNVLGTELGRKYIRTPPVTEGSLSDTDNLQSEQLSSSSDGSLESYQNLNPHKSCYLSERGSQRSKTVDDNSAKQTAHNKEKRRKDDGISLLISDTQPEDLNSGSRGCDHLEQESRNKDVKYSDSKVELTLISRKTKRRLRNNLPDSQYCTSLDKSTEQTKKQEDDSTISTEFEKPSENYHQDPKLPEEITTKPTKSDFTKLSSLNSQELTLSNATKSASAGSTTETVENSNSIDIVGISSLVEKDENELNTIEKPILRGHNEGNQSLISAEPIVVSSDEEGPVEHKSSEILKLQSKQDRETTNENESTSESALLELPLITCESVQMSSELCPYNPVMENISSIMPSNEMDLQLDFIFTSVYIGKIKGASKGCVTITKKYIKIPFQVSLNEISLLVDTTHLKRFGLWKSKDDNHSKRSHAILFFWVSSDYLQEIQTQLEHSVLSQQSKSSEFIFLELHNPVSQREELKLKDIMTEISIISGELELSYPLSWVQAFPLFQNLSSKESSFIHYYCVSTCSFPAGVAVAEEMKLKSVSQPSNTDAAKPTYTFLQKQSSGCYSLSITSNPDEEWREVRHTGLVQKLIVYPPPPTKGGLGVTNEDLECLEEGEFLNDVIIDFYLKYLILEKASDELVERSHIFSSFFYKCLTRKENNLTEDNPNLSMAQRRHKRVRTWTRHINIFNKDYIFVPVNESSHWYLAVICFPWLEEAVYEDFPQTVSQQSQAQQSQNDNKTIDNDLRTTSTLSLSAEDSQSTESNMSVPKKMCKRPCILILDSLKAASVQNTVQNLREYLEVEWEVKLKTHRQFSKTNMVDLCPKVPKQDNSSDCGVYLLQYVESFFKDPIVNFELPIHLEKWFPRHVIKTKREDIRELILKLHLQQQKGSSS

[5] = target: T5, Sentrin-specific protease 6 (Homo sapiens, UniProt Q9GZR1); format: functional;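 note: Luminescence-based dose-response confirmatory assay of SENP6 inhibition, following up an ultra-high-throughput screen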
T5 sequence (Q9GZR1 whole entry): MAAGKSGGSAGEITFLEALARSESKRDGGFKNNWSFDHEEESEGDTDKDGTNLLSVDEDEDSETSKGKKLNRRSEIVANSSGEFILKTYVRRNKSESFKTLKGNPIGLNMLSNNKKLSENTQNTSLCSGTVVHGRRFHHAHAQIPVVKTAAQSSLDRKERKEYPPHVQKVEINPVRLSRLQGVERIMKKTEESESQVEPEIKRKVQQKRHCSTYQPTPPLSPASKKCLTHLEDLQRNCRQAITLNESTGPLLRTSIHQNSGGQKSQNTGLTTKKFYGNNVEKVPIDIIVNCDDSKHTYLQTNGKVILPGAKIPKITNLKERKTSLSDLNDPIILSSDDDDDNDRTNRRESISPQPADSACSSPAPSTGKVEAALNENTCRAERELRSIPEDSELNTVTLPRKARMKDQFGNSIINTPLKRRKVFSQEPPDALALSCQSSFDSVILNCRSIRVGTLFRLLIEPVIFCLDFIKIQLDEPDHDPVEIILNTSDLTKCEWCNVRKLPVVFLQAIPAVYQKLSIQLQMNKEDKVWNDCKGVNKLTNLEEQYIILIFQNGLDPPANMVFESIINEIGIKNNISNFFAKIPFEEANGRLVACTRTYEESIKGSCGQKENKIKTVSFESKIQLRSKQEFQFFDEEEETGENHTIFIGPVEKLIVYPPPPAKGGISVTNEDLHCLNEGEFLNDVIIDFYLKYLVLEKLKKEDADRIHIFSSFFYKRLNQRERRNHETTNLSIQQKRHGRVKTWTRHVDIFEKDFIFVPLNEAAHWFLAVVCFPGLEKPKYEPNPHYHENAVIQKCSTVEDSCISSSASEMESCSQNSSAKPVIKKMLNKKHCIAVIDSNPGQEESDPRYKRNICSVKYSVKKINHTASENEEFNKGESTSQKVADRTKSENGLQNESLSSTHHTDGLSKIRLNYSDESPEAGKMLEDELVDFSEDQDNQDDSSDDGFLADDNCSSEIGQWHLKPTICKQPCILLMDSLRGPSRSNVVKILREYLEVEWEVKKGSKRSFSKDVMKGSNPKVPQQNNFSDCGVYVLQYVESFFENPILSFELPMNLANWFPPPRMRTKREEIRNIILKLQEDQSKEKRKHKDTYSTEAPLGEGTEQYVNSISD

[6] = tested on: H4; assay: Luminescence Cell-Based Dose Response HTS to Identify Activators of 5'UTR Stem-Loop Driven Prion Protein mRNA Translation in H4 Neuroglioblastoma Cells. [Related pubchem assays: 1829 (Project Summary), 1814 (Primary HTS)]; format: functional; details: Homo sapiens
[7] = Luminescence Cell-Based Dose Confirmation HTS to Identify Activators of 5'UTR Stem-Loop Driven Alpha-Synuclein mRNA Translation in H4 Neuroglioblastoma Cells. [Related pubchem assays: 1829 (Project Summary), 1814 (Primary HTS)]; format: functional
[8] = target: T6, Protein skinhead-1 (Caenorhabditis elegans, UniProt P34707); format: functional
T6 sequence (P34707 whole entry): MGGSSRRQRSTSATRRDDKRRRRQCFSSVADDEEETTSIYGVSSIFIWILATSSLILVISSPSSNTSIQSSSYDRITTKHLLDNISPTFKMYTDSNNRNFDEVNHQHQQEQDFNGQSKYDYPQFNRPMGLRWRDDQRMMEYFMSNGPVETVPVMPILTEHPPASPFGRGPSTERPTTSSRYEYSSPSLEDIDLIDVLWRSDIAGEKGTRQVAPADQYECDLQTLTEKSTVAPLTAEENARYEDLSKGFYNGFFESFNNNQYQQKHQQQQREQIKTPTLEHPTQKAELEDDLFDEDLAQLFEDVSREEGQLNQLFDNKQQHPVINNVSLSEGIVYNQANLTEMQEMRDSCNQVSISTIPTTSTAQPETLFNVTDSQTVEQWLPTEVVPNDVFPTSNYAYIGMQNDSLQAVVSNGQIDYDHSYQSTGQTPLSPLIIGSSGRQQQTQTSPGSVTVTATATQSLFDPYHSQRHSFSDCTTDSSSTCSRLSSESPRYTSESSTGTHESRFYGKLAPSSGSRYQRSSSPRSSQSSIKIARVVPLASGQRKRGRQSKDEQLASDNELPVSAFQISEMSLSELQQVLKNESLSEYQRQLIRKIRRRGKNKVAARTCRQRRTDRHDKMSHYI

[9] = Luminescence Cell-Based Dose Response HTS to Identify Activators of Luciferase Translation or Activity in H4 […] Cells. [Related pubchem assays: 1829 (Project Summary), 1814 (Primary HTS)]; format: functional
[10] = target: T7, Heat shock factor protein 1 (Mus musculus, UniProt P38532); assay: enhancement of HSF1-driven luciferase signal – cell-based, NIH3T3, luminescence, dose retest, confirmation (AID 435004); format: functional;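 note: stress induced by proteasome inhibitor MG132 added 30 min after compound; luciferase reporter driven by HSF1 response element in NIH3T3 cells; actives raise luminescence as potentiators of the MG132 stress response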
T7 sequence (P38532 whole entry): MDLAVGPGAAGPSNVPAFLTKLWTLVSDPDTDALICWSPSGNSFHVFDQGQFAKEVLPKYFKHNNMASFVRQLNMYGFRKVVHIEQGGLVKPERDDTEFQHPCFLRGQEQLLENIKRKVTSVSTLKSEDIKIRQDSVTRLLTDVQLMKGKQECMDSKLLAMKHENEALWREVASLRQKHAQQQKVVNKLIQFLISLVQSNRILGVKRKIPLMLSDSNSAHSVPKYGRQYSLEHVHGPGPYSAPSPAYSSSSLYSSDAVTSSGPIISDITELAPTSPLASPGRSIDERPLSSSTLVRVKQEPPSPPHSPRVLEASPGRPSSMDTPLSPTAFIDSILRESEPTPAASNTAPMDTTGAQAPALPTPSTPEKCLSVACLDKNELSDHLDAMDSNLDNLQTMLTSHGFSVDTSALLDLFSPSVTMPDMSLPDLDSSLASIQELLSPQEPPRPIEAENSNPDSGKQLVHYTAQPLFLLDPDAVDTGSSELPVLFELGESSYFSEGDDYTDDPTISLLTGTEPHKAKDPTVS

[11] = target: Glucose-6-phosphate 1-dehydrogenase (Homo sapiens, UniProt P11413); assay: inhibition of Homo sapiens G6PD, dose series – biochemical, fluorescence, selectivity assay for P. falciparum G6PD inhibitor project, dose response (AID 504792); format: functional
Sequence of Glucose-6-phosphate 1-dehydrogenase (P11413 whole entry): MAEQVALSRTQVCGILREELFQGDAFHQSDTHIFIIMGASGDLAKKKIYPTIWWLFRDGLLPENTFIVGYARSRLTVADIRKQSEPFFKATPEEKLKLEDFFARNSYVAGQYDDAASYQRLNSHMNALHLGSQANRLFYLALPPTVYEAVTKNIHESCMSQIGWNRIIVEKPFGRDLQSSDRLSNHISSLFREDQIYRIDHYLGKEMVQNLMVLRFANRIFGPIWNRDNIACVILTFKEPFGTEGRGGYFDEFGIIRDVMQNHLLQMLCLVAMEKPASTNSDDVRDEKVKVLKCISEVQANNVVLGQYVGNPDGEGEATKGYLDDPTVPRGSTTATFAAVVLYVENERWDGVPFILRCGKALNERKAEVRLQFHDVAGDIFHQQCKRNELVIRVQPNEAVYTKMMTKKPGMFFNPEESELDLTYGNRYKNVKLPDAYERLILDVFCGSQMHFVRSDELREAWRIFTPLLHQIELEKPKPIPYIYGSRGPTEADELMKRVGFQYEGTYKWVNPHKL

[12] = HEK-293T viability loss after treatment – luminescence, T-cell screen hits, cytotoxicity control for TCR NF-kB inhibitor project, dose response (AID 489026); format: functional, cell-based;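 note: cells exposed to compound about 14 hours before the viability readout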
[13] = target: Large T antigen (Simian virus 40, UniProt P03070); format: functional, Betapolyomavirus macacae;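 note: Confirmatory-stage PubChem screen for compounds that inhibit SV40 T antigen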
Sequence of Large T antigen (P03070 whole entry): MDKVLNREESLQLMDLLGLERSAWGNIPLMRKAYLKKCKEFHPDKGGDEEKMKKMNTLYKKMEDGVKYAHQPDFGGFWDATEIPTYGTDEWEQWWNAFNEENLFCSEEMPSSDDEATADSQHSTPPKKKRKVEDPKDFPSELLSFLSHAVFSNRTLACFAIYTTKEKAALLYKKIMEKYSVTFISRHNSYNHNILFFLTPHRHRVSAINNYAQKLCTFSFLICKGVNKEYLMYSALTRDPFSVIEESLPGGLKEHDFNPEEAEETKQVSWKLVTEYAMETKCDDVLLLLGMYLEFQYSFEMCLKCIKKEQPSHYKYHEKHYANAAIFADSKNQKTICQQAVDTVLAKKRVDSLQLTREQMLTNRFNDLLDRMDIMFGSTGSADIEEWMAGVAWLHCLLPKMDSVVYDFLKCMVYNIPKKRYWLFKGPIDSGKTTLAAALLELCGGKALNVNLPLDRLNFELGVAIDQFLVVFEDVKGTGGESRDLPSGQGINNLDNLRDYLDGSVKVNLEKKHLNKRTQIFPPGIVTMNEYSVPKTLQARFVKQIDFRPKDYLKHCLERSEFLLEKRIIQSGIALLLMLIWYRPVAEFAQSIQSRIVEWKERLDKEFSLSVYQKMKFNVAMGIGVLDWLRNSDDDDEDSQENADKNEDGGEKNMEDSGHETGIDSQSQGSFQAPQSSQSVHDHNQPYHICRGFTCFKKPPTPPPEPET

[14] = tested on: INS1; assay: INS-1E survival protection against cytokine death – cell-based, luminescence, retest, dose response (AID 449756); format: functional; details: Rattus norvegicus;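 note: cell death triggered by IL-1 beta plus TNF-alpha plus IFN-gamma mixture; protective hits raise ATP signal compared with cytokine alone wells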
[15] = Luminescence Cell-Based Dose Response HTS to Identify Inhibitors of 5'UTR Stem-Loop Driven Prion Protein mRNA Translation in H4 Neuroglioblastoma Cells. [Related pubchem assays: 1827 (Project Summary), 1813 (Primary HTS)]; format: functional
[16] = alpha-synuclein stem-loop luciferase translation blockers – H4 neuroglioma cells, luminescence, confirmation (AID 1988); format: functional, cell-based
[17] = microbe, parasite or virus in culture; format: functional; details: Mycobacterium tuberculosis
[18] = luciferase reporter signal suppression in cells – H4 neuroglioma cells, luminescence, dose response (AID 1990); format: functional, cell-based
[19] = target: Paired box protein Pax-8 (Homo sapiens, UniProt Q06710); assay: PAX8 transcriptional activity inhibition in RMG-I – RMG-I cells, luciferase, cherry-pick, dose response (AID 687027); format: functional, cell-based;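 note: luciferase reporter driven by Pax8 target thyroperoxidase promoter measured by SteadyGlo luminescence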
Sequence of Paired box protein Pax-8 (Q06710 whole entry): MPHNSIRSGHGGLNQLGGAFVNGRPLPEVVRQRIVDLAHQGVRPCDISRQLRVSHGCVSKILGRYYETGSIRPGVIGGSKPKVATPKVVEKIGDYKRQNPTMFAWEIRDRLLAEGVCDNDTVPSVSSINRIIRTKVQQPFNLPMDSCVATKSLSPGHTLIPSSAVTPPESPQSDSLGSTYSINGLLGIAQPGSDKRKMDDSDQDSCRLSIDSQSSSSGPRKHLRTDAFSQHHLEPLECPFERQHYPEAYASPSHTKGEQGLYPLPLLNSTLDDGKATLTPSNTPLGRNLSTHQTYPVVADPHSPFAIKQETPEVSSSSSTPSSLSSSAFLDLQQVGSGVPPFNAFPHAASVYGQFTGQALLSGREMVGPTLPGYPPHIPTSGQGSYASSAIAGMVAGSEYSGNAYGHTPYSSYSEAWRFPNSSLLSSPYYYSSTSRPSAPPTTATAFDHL

[20] = target: Nonstructural protein 1 (Influenza A virus, UniProt Q194T2); format: functional, Influenza A virus (A/California/07/2009(H1N1))
Sequence of Nonstructural protein 1 (Q194T2 whole entry): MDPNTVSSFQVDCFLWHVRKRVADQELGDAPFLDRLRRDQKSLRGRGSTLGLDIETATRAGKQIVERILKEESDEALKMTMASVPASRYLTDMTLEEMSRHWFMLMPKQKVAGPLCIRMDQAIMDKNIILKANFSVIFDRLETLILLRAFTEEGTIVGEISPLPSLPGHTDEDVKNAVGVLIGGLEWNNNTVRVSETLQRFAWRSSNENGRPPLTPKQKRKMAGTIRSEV

For `CCc1ccc(OCC(=O)NNC(=O)c2ccc(NC(=O)C3CC3)cc2)cc1`, the IC50 [1] was 10.5 µM (active).
With `O=C(CCCc1ccccc1)c1ccccc1` the IC50 [2] was 54.9 µM (active), the IC50 [3] was 13.5 µM (active) and the IC50 [4] was 7.31 µM (active). For the same compound, the IC50 [5] was 20.4 µM (active).
For `O=C(Nc1nccs1)c1ccc(-c2ccccc2Cl)o1`, the EC50 [6] was 23.5 µM (inconclusive), the IC50 [2] was 25.1 µM (active) and the IC50 [3] was 22 µM (active). The IC50 [4] was 4.57 µM (active), the IC50 [5] was > 100 µM (inactive) and the EC50 [7] was 27 µM (active). The IC50 [8] was > 100 µM (inactive) and the EC50 [9] was 106 µM (active).
With `O=C(CCN1C(=O)S/C(=C\c2ccc(Cl)cc2)C1=O)Nc1ccc(C(=O)O)cc1` the IC50 [1] was 6.17 µM (active).
In the case of `O=C(CCN1C(=O)/C(=C/c2ccc(Cl)cc2)SC1=S)Nc1ccc(C(=O)O)cc1`, the IC50 [1] is reported as 2.64 µM (active).
In the case of `C[C@]12CC[C@@H]3c4cc(O)c(O)cc4CC[C@H]3[C@@H]1CC[C@@H]2O`, the EC50 [10] is reported as 4.07 µM (active), the IC50 [11] is reported as 72.5 µM (inactive) and the IC50 [12] is reported as > 80 µM (inactive). The IC50 [13] was > 100 µM (active).
With `Cc1ccc(O)c(NC(=O)CCC2CCCCC2)c1` the IC50 [12] was > 80 µM (inactive).
For `CCCCCCCCn1c2c(c(=N)c3c1CCC3)CCCC2`, the AC50 [14] was < 0.195 µM (active), the EC50 [15] was 32.4 µM (active) and the EC50 [16] was 7.18 µM (active). The CC50 [17] was 32.7 µM (active), the EC50 [18] was 4.15 µM (active) and the IC50 [12] was 73.8 µM (inactive). The AC50 [19] was 2.36 µM (active).
In the case of `CN1CCN(c2cc(N3CCCCCC3)c(F)cc2[N+](=O)[O-])CC1`, the IC50 [20] is reported as > 100 µM (active).
With `CN1CCN(C(=O)c2cccc(-c3cc(O)c4ncccc4c3)c2)CC1` the IC50 [20] was 11.4 µM (active).
